Legend:
Format in all cases: cell-based, human
PAR-1 (WEDE15) = assay: Flow cytometry, PAR-1 thrombin receptor expression (WEDE15)
Method: (§1) Venous blood (8 ml) is collected in a plastic tube containing 2 ml of acid-citrate-dextrose (ACD) (7.3 g citric acid, 22.0 g sodium citrate.2H2O and 24.5 glucose in 1000 ml distilled water) and mixed well. The blood-ACD mixture is centrifuged at 1000 r.p.m. for 10 minutes at room temperature. The upper ⅔ of the platelet-rich plasma (PRP) is then collected and adjusted to pH=6.5 by adding ACD. The PRP is then centrifuged at 3000 r.p.m. for 10 minutes. The supernatant is removed and the platelet pellet is gently resuspended in 4 cc of the washing buffer (10 mM Tris/HCl, 0.15 M NaCl, 20 mM EDTA, pH=7.4). Platelets are washed in the washing buffer, and in TBS (10 mM Tris, 0.15 M NaCl, pH=7.4). All cells are then divided into the appropriate number of tubes. By way of example, if 9 different surface markers are evaluated, as described herein, then the cells should be divided into ten tubes, such that nine tubes containing washed platelets are incubated with 5 μl fluorescein isothiocyanate (FITC)-conjugated antibodies in the dark at +4° C. for 30 minutes, and one tube remains unstained and serves as a negative control. Surface antigen expression is measured with monoclonal murine anti-human antibodies, such as CD9 (p24); CD41a (IIb/IIIa, aIIbb3); CD42b (Ib); CD61(IIIa) (DAKO Corporation, Carpinteria, Calif.); CD49b (VLA-2, or a2b1); CD62p (P-selectin); CD31 (PECAM-1); CD 41b (IIb); and CD51/CD61 (vitronectin receptor, avb3) (PharMingen, San Diego Calif.), as the expression of these antigens on the cells is associated with platelet activation. After incubation, the cells are washed with TBS and resuspended in 0.25 ml of 1% paraformaldehyde. Samples are stored in the refrigerator at +4° C., and analyzed on a Becton Dickinson FACScan flow cytometer with laser output of 15 mw, excitation at 488 nm, and emission detection at 530±30 nm. The data can be collected and stored in list mode, and then analyzed using CELLQuest® software. FACS procedures are described in detail in, e.g., Gurbel, P. A. et al., J Amer Coll Cardiol 31: 1466-1473 (1998); Serebruany, V. L. et al., Am Heart J 136: 398-405 (1998); Gurbel, P. A. et al., Coron Artery Dis 9: 451-456 (1998) and Serebruany, V. L. et al., Arterioscl Thromb Vasc Biol 19: 153-158 (1999).
(§2) Four cc of blood is collected in a tube, containing 2 cc of acid-citrate-dextrose (ACD; 7.3 g citric acid, 22.0 g sodium citrate.2H2O and 24.5 glucose in 1000 ml distilled water) and mixed well. The buffer, TBS (10 mM Tris, 0.15 M NaCl, pH 7.4) and the following fluorescein isothiocyanate (FITC) conjugated monoclonal antibodies (PharMingen, San Diego, Calif., USA, and DAKO, Calif., USA) are removed from a refrigerator and allowed to warm at room temperature (RT) prior to their use. The non-limiting examples of antibodies that can be used include CD41 (IIb/IIIa), CD31 (PECAM-1), CD62p (P-selectin), and CD51/61 (Vitronectin receptor). For each subject, six amber tubes (1.25 ml) are one Eppendorf tube (1.5 ml) are obtained and marked appropriately 450 μl of TBS buffer is pipetted to the labeled Eppendorf tube. A patient's whole blood tube is inverted gently twice to mix, and 50 μl of whole blood is pipetted to the appropriately labeled Eppendorf tube. The Eppendorf tube is capped and the diluted whole blood is mixed by inverting the Eppendorf tube gently two times, followed by pipetting 50 μl of diluted whole blood to each amber tube. […] The samples are analyzed on a Becton Dickinson FACScan flow cytometer. […]

platelets = assay: Conventional platelet aggregation induced by ADP
Method: Trisodium citrate (3.8%) and whole blood is immediately mixed in a 1:9 ratio, and then centrifuged at 1200 g for 2.5 minutes, to obtain platelet-rich plasma (PRP), which is kept at room temperature for use within 1 hour for platelet aggregation studies. Platelet count is determined in each PRP sample with a Coulter Counter ZM (Coulter Co., Hialeah, Fla.). Platelet numbers are adjusted to 3.50×10^8/ml for aggregation with homologous platelet-poor plasma. PRP and whole blood aggregation tests are performed simultaneously. Whole blood is diluted 1:1 with the 0.5 ml PBS, and then swirled gently to mix. The cuvette with the stirring bar is placed in the incubation well and allowed to warm to 37° C. for 5 minutes. Then the samples are transferred to the assay well. An electrode is placed in the sample cuvette. Platelet aggregation is stimulated with 5 μM ADP, 1 μg/ml collagen, and 0.75 mM arachidonic acid. All agonists are obtained, e.g., from Chronolog Corporation (Hawertown, Pa.). Platelet aggregation studies are performed using a Chrono-Log Whole Blood Lumi-Aggregometer (model 560-Ca). Platelet aggregability is expressed as the percentage of light transmittance change from baseline using platelet-poor plasma as a reference at the end of recording time for plasma samples, or as a change in electrical impedance for whole blood samples. Aggregation curves are recorded for 4 minutes and analyzed according to internationally established standards using Aggrolink® software.
The effect of doses (15 μg/ml to 90 μg/ml) of Compound A on in vitro platelet characteristics in subjects with multiple factors for vascular disease was tested.
The in vitro effects of pre-incubation with escalating concentrations of Compound A on platelet aggregation, and expression of major surface receptors by flow cytometry, were assessed in 20 aspirin naïve volunteers with multiple risk factors for vascular disease.

[1] = system: platelet-monocyte microparticles (CD14+CD151); assay: Flow cytometry, formation of platelet-monocyte microparticles
Method: as §1, §2

thrombospondin (CD36) = assay: Flow cytometry, platelet surface expression of thrombospondin
Method: as §1, §2

CD40-ligand (CD154) = assay: Flow cytometry, platelet surface expression of CD154
Method: as §1, §2

GP Ib (CD42b) = assay: Flow cytometry, platelet surface expression of CD42b
Method: as §1, §2

PECAM-1 (CD31) = assay: Flow cytometry, platelet surface expression of CD31
Method: as §1, §2

[2] = system: vitronectin receptor (CD51/CD61); assay: Flow cytometry, platelet surface expression of CD51/61
Method: as §1, §2

## CC(C)(Sc1cc(C(C)(C)C)c(O)c(C(C)(C)C)c1)Sc1cc(C(C)(C)C)c(OC(=O)CCC(=O)O)c(C(C)(C)C)c1 [Compound A]
PAR-1 (WEDE15); preincubation 15 μg/mL
  Flow cytometry PAR-1 (WEDE15): 40.6 ± 5.5
PAR-1 (WEDE15); preincubation 30 μg/mL
  Flow cytometry PAR-1 (WEDE15): 36.1 ± 4.7
PAR-1 (WEDE15); preincubation 60 μg/mL
  Flow cytometry PAR-1 (WEDE15): 37.7 ± 5.5
PAR-1 (WEDE15); preincubation 90 μg/mL
  Flow cytometry PAR-1 (WEDE15): 34.3 ± 5.2
PAR-1 (WEDE15); pretreated samples
  PAR-1 thrombin receptor expression, active epitope: reduced
platelets; preincubation 15 μg/mL
  Conventional platelet aggregation, ADP 5 μM: 39.95 ± 11.9%
platelets; preincubation 30 μg/mL
  Conventional platelet aggregation, ADP 5 μM: 40.4 ± 6.9%
platelets; preincubation 60 μg/mL
  Conventional platelet aggregation, ADP 5 μM: 42.05 ± 7.2%
platelets; preincubation 90 μg/mL
  Conventional platelet aggregation, ADP 5 μM: 42.65 ± 6.3%
platelets; pretreatment of blood samples with 15-30-60-90 μg/ml
  platelet aggregation induced by ADP: uniformed significant inhibition
[1]; preincubation 15 μg/mL
  Flow cytometry CD151 + 14: 131.4 ± 11.8
[1]; preincubation 30 μg/mL
  Flow cytometry CD151 + 14: 107.6 ± 15.4
[1]; preincubation 60 μg/mL
  Flow cytometry CD151 + 14: 98.7 ± 12.9
[1]; preincubation 90 μg/mL
  Flow cytometry CD151 + 14: 97.9 ± 10.8
[1]; pretreated samples
  Formation of platelet-monocyte microparticles (CD14+CD151): reduced
Thrombospondin (CD36)
  thrombospondin (CD36): little or no effect
Thrombospondin (CD36); preincubation 15 μg/mL
  Flow cytometry Thrombospondin: 10.1 ± 1.9
Thrombospondin (CD36); preincubation 30 μg/mL
  Flow cytometry Thrombospondin: 11.0 ± 2.3
Thrombospondin (CD36); preincubation 60 μg/mL
  Flow cytometry Thrombospondin: 10.3 ± 1.9
Thrombospondin (CD36); preincubation 90 μg/mL
  Flow cytometry Thrombospondin: 9.6 ± 2.0
CD40-ligand (CD154)
  CD40-ligand (CD154): little or no effect
CD40-ligand (CD154); preincubation 15 μg/mL
  Flow cytometry CD154: 6.6 ± 1.0
CD40-ligand (CD154); preincubation 30 μg/mL
  Flow cytometry CD154: 6.7 ± 0.9
CD40-ligand (CD154); preincubation 60 μg/mL
  Flow cytometry CD154: 6.8 ± 1.1
CD40-ligand (CD154); preincubation 90 μg/mL
  Flow cytometry CD154: 7.0 ± 1.1
GP Ib (CD42b); preincubation 15 μg/mL
  Flow cytometry CD42b: 151.6 ± 11.2
GP Ib (CD42b); preincubation 30 μg/mL
  Flow cytometry CD42b: 142.8 ± 11.4
GP Ib (CD42b); preincubation 60 μg/mL
  Flow cytometry CD42b: 137.7 ± 8.9
GP Ib (CD42b); preincubation 90 μg/mL
  Flow cytometry CD42b: 111.2 ± 11.2
GP Ib (CD42b); pretreated samples
  Surface platelet expression of GP Ib (CD42b): decreased
PECAM-1 (CD31); preincubation 15 μg/mL
  Flow cytometry CD31: 58.4 ± 5.7
PECAM-1 (CD31); preincubation 30 μg/mL
  Flow cytometry CD31: 57.8 ± 6.5
PECAM-1 (CD31); preincubation 60 μg/mL
  Flow cytometry CD31: 55.8 ± 7.1
PECAM-1 (CD31); preincubation 90 μg/mL
  Flow cytometry CD31: 50.9 ± 8.9
PECAM-1 (CD31); pretreated samples
  Surface platelet expression of PECAM-1 (CD31): decreased
[2]
  vitronectin receptor (CD51/CD61): little or no effect
[2]; preincubation 15 μg/mL
  Flow cytometry CD51/61: 10.9 ± 2.1
[2]; preincubation 30 μg/mL
  Flow cytometry CD51/61: 11.4 ± 1.6
[2]; preincubation 60 μg/mL
  Flow cytometry CD51/61: 11.8 ± 2.1
[2]; preincubation 90 μg/mL
  Flow cytometry CD51/61: 10.2 ± 1.7

— patent US20070213303A1, “Methods for reducing platelet activation and for the treatment of thrombotic events” (priority 2005, published 2007)
